Data on twelve molecules can be found in ChEMBL document CHEMBL2424652, “Synthesis, characterization, and antimicrobial evaluation of novel trichalcones containing core s-triazine moiety” (2013).

Format in all cases: functional
The test system of assay [1] is Curvularia. In words: Antifungal activity against Curvularia lunata at 200 ug/mL after 48 hrs by disc diffusion method. The settings on record: for zone of inhibition at 200 µg/mL: read-out: DIZ. A general note: A growth-free zone around the sample is the usual read-out of agar diffusion tests.
For assay [2], the system named is Alternaria. Description: Antifungal activity against Alternaria at 200 ug/mL after 48 hrs by disc diffusion method. The settings on record: for zone of inhibition at 200 µg/mL: read-out: DIZ.
Assay [3] has as its system Pectobacterium carotovorum. Description: Antibacterial activity against Erwinia carotovora at 200 ug/mL after 24 hrs by disc diffusion method. The settings on record: read-out: DIZ.
Assay [4] can be described thus: Antibacterial activity against Xanthomonas citri at 200 ug/mL after 24 hrs by disc diffusion method. The settings on record: read-out: DIZ.
Assay [5] relates to Staphylococcus aureus. In words: Antibacterial activity against Staphylococcus aureus at 200 ug/mL after 24 hrs by disc diffusion method. The settings on record: read-out: DIZ.
Assay [6] relates to Proteus vulgaris. Description: Antibacterial activity against Proteus vulgaris at 200 ug/mL after 24 hrs by disc diffusion method. To be noted: read-out: DIZ.

Take `COc1ccc(C(=O)/C=C/c2ccc(Oc3nc(Oc4ccc(/C=C/C(=O)c5ccc(OC)c(OC)c5)cc4)nc(Oc4ccc(/C=C/C(=O)c5ccc(OC)c(OC)c5)cc4)n3)cc2)cc1OC`: the zone of inhibition at 200 µg/mL is 12.1 mm in assay [1]; 12.1 mm in assay [2]; 12.2 mm in assay [3]; 11.1 mm in assay [4]; 9.9 mm in assay [5]; 12.3 mm in assay [6].
For the molecule NYSTATIN, the inhibition zone (IZ) in assay [1] and in assay [2] was 15 mm throughout.
In the case of `COc1ccc(OC)c(C(=O)/C=C/c2ccc(Oc3nc(Oc4ccc(/C=C/C(=O)c5cc(OC)ccc5OC)cc4)nc(Oc4ccc(/C=C/C(=O)c5cc(OC)ccc5OC)cc4)n3)cc2)c1`, the zone of inhibition at 200 µg/mL in assay [1] turned out to be 12.2 mm; in assay [2] it was 12.2 mm; in assay [3], 9.1 mm; in assay [4], 10 mm; in assay [5], 9.1 mm; in assay [6], 7.86 mm.
As for `O=C(/C=C/c1ccc(Oc2nc(Oc3ccc(/C=C/C(=O)c4cccc([N+](=O)[O-])c4)cc3)nc(Oc3ccc(/C=C/C(=O)c4cccc([N+](=O)[O-])c4)cc3)n2)cc1)c1cccc([N+](=O)[O-])c1`, the zone of inhibition at 200 µg/mL is 6.96 mm in assay [1]; 7.96 mm in assay [2]; 6 mm in assay [3]; 7.96 mm in assay [4]; 7.13 mm in assay [5]; 10 mm in assay [6].
For the molecule `O=C(/C=C/c1ccc(Oc2nc(Oc3ccc(/C=C/C(=O)c4ccc(Cl)cc4)cc3)nc(Oc3ccc(/C=C/C(=O)c4ccc(Cl)cc4)cc3)n2)cc1)c1ccc(Cl)cc1`, the zone of inhibition at 200 µg/mL in assay [1] was 7.2 mm; in assay [2] it was 8.03 mm; in assay [3], 8.06 mm; in assay [4] it was 10.1 mm; in assay [5] it was 12.1 mm; in assay [6], 14 mm.
On to `CC1(C)S[C@@H]2[C@H](NC(=O)Cc3ccccc3)C(=O)N2[C@H]1C(=O)O` [PENICILLIN G], for which the zone of inhibition at 200 µg/mL in assay [3], in assay [4], in assay [5] and in assay [6] was 15 mm in each case.
`COc1cc(C(=O)/C=C/c2ccc(Oc3nc(Oc4ccc(/C=C/C(=O)c5cc(OC)c(OC)c(OC)c5)cc4)nc(Oc4ccc(/C=C/C(=O)c5cc(OC)c(OC)c(OC)c5)cc4)n3)cc2)cc(OC)c1OC`: the zone of inhibition at 200 µg/mL worked out at 14.1 mm in assay [1]; 13.2 mm in assay [2]; 12.3 mm in assay [3]; 10.1 mm in assay [4]; 13 mm in assay [5]; 11.1 mm in assay [6].
With `COc1ccc(C(=O)/C=C/c2ccc(Oc3nc(Oc4ccc(/C=C/C(=O)c5ccc(OC)cc5)cc4)nc(Oc4ccc(/C=C/C(=O)c5ccc(OC)cc5)cc4)n3)cc2)cc1`, the zone of inhibition at 200 µg/mL in assay [1] came out at 13.2 mm; in assay [2], 10.2 mm; in assay [3], 8.06 mm; in assay [4] it was 8.86 mm; in assay [5], 7.86 mm; in assay [6] it was 6.96 mm.
As to `O=C(/C=C/c1ccc(Oc2nc(Oc3ccc(/C=C/C(=O)c4ccc(Br)cc4)cc3)nc(Oc3ccc(/C=C/C(=O)c4ccc(Br)cc4)cc3)n2)cc1)c1ccc(Br)cc1`, the zone of inhibition at 200 µg/mL in assay [1] was 10.1 mm; in assay [2] it was 6.16 mm; in assay [3], 13 mm; in assay [4], 11.1 mm; in assay [5], 9.96 mm; in assay [6], 11.9 mm.
For the molecule `Cc1ccc(C(=O)/C=C/c2ccc(Oc3nc(Oc4ccc(/C=C/C(=O)c5ccc(C)cc5)cc4)nc(Oc4ccc(/C=C/C(=O)c5ccc(C)cc5)cc4)n3)cc2)cc1`, the zone of inhibition at 200 µg/mL was 6.96 mm in assay [1]; 5.16 mm in assay [2]; 8.03 mm in assay [3]; 10.1 mm in assay [4]; 7.93 mm in assay [5]; 10 mm in assay [6].
In the case of `O=C(/C=C/c1ccc(Oc2nc(Oc3ccc(/C=C/C(=O)c4ccc([N+](=O)[O-])cc4)cc3)nc(Oc3ccc(/C=C/C(=O)c4ccc([N+](=O)[O-])cc4)cc3)n2)cc1)c1ccc([N+](=O)[O-])cc1`, the zone of inhibition at 200 µg/mL in assay [1] was 8.2 mm; in assay [2], 7 mm; in assay [3], 6.96 mm; in assay [4], 6.1 mm; in assay [5], 4.93 mm; in assay [6], 5.9 mm.
Regarding `O=C(/C=C/c1ccc(Oc2nc(Oc3ccc(/C=C/C(=O)c4ccccc4)cc3)nc(Oc3ccc(/C=C/C(=O)c4ccccc4)cc3)n2)cc1)c1ccccc1`, the zone of inhibition at 200 µg/mL in assay [1] stood at 6.16 mm; in assay [2] it was 5.1 mm; in assay [3] it was 7.93 mm; in assay [4], 6.96 mm; in assay [5], 10 mm; in assay [6], 7.83 mm.
